Experimental data: PubChem BioAssay (NCI)
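Five concentrations, 48 hours, 96-well plates. The concentration for 50% growth inhibition is given as GI50. Definition used: TGI = concentration required for complete inhibition of growth.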

Legend:
Experiment in all cases: NCI tumour cell line growth inhibition, 48 h
UACC-257 melanoma = system: UACC-257 melanoma
MDA-MB-435 = system: MDA-MB-435
HOP-62 NSCLC = system: HOP-62 NSCLC
M14 melanoma = system: M14 melanoma
U251 CNS = system: U251 CNS
SNB-19 CNS = system: SNB-19 CNS
OVCAR-3 ovarian = system: OVCAR-3 ovarian
A549 NSCLC = system: A549 NSCLC
SN12C renal = system: SN12C renal
RPMI-8226 leukemia = system: RPMI-8226 leukemia

Structure (SMILES) | TGI (UACC-257 melanoma) [µM] | TGI (MDA-MB-435) [µM] | TGI (HOP-62 NSCLC) [µM] | TGI (M14 melanoma) [µM] | TGI (U251 CNS) [µM] | TGI (SNB-19 CNS) [µM] | TGI (OVCAR-3 ovarian) [µM] | TGI (A549 NSCLC) [µM] | TGI (SN12C renal) [µM] | TGI (RPMI-8226 leukemia) [µM] | GI50 (UACC-257 melanoma) [µM] | GI50 (MDA-MB-435) [µM] | GI50 (HOP-62 NSCLC) [µM] | GI50 (M14 melanoma) [µM] | GI50 (U251 CNS) [µM] | GI50 (SNB-19 CNS) [µM] | GI50 (OVCAR-3 ovarian) [µM] | GI50 (A549 NSCLC) [µM] | GI50 (SN12C renal) [µM] | GI50 (RPMI-8226 leukemia) [µM]
O=C1OC(c2ccc([N+](=O)[O-])cc2)=N/C1=C\c1ccc(O)cc1 | > 100 | > 100 | > 100 | > 100 | > 100 | > 100 | > 100 | > 100 | > 100 | > 100 | – | – | – | – | – | – | – | – | – | –
C=CCSc1n[nH]c(-c2cccs2)n1 | > 100 | > 100 | > 100 | > 100 | > 100 | > 100 | > 100 | > 100 | > 100 | > 100 | > 100 | > 100 | > 100 | > 100 | > 100 | > 100 | > 100 | > 100 | > 100 | > 100
CCN(C)S(=O)(=O)Nc1cccc(Nc2ncnc3cc(NC(=O)CCl)ccc23)c1Cl | 15.8 | 6.44 | 7.73 | 7.34 | 1.64 | 7.18 | 7.8 | 16.3 | 4.46 | 5.42 | 3.59 | 1.92 | 3.42 | 1.77 | 0.611 | 2.99 | 3.76 | 6.18 | 1.08 | 1.21
C=C1CC2(OC1=O)c1ccccc1CCc1ccccc12 | 7.9 | 6.15 | 44 | 3.91 | 18.1 | 15.6 | 3.74 | 21.8 | 5.47 | 7.24 | – | – | – | – | – | – | – | – | – | –
N#Cc1ccc(-n2cnc(NC(=O)[C@H]3CCN(C#N)C3)c2)cc1 | 10.1 | 18.4 | 15.5 | 6.28 | > 56.7 | 98.7 | 4.84 | > 100 | > 70.3 | 7.46 | 1.94 | 0.234 | 2.28 | 0.757 | 3.29 | 3.51 | – | 3.15 | 2.72 | 1.71
COc1ccc2cc(C(=O)/C=C/c3ccc(OC)c(OC)c3)ccc2c1 | – | 43.4 | 41.6 | 25.7 | 58.8 | 80 | > 100 | 30.3 | 32.6 | 20.3 | – | 5.59 | 18 | 11.2 | 11.8 | 27.2 | 14.8 | 4.29 | 13.5 | 4.09
COc1cc(/C=C2\C(=O)N(c3c(Cl)cccc3Cl)c3ccccc32)cc(OC)c1O | 19.6 | 15.4 | 20.3 | 15.6 | 13.5 | 19.3 | 7.24 | 10.1 | 17.6 | 11.7 | 2.19 | 0.626 | 1.23 | 1.03 | 0.315 | 0.742 | 0.905 | 1.24 | 1.01 | 0.718
CC1=CC(C)C(O)C(C)/C=C/C(O)C/C=C(/C)C(=O)CC(O)C(C)\C=C/C=C/C=C\C(=O)NC2=C(O)c3cc(C)c(O)c(c3C(=O)C2=O)C1=O (configuration not stated) | > 100 | > 100 | > 100 | > 100 | > 100 | > 100 | > 100 | > 100 | > 100 | > 100 | – | – | – | – | – | – | – | – | – | –
CCOC(=O)C(=Cc1ccc(Br)cc1)C(=O)OCC | 4.15 | 6.91 | 5.47 | 3.68 | 2.98 | 7.55 | 2.92 | 5.83 | 4.21 | 1.32 | 1.88 | 2.16 | 2.78 | 1.8 | 1.43 | 2.47 | 1.47 | 2.28 | 2.03 | 0.27
Cc1ccc(NC2=C(Cl)C(=O)c3nc(C)ccc3C2=O)cc1 | 3 | 2.88 | 2.58 | 3.22 | 2.75 | 3.01 | 1.39 | 4.39 | 2.85 | 4.2 | 1.58 | 1.48 | 0.836 | 1.67 | 1.31 | 1.32 | 0.395 | 1.81 | 1.37 | 1.41
COc1ccc2[nH]cc(/C=C3\C(=O)Nc4ccccc43)c2c1 | 73.1 | 5.97 | 19.8 | 14.2 | 21.2 | > 100 | 35.9 | 24.4 | 39.9 | 6.84 | 14.3 | 2.39 | 5.18 | 2.99 | 6.12 | 8.7 | 9.62 | 4.68 | 7.37 | 2.35
CCOC(=O)c1c(C)c2c(n1C)CSc1cc(S(=O)(=O)c3ccccc3)c(=O)[nH]c1-2 | > 100 | > 100 | 89.9 | 77.7 | > 100 | > 100 | 43.6 | > 100 | > 100 | > 100 | 34.5 | 30.8 | 31.5 | 27.9 | 28.4 | 26.9 | 17.1 | 30.2 | 27.6 | 14.8
NC(=O)c1c(OCc2c(F)cc(Br)cc2F)nsc1NC(=O)NCCCCN1CCCC1 | 3.94 | 6.75 | > 10 | 3.46 | 5.51 | > 10 | 4.52 | > 10 | 8.28 | 6 | 1.85 | 2.26 | 1.58 | 1.6 | 1.71 | 2.27 | 1.81 | 2.97 | 1.08 | 2.4
